Several values for one entry are separate records, joined by “and”; a condition that tells them apart may be missing. Identical values can stand only once. Entries after “also recorded” stand apart in the source; their conditions may differ. Marks after values point to notes of the source that are not given here.
Tests used:
[1] = Docetaxel dissolution study, methanol/water 15/85, USP Apparatus II; format: physicochemical; details: for Docetaxel Dissolution time course: methanol/water 15/85
Experimental: The procedures used to determine the dissolution rates are as follows. […] Beads were transferred to a stainless steel mesh container and placed in the dissolution bath containing methanol/water 50/50 (v/v) media at 37° C., pH 7, and a USP Apparatus II (Paddle), operating at 75 rpm. At 10, 20, 30, 60, and 90 minutes, a 5 mL aliquot was removed, filtered through a 0.22 μm filter and analyzed on a UV/VIS spectrophotometer at 227 nm. Absorbance values of the samples were compared to those of standard solutions prepared in dissolution media to determine the amount of material dissolved. […] At 5, 15, 30, 60, 120 and 225 minutes, a 5 mL aliquot was removed, filtered through a 0.22 μm filter, and analyzed on a UV/VIS spectrophotometer at 232 nm. Absorbance values of the samples were compared to those of standard solutions prepared in dissolution media to determine the amount of material dissolved.
At 5, 15, 30, 60, 120 and 225 minutes, a 5 mL aliquot was removed, filtered through a 0.22 μm filter, and analyzed on a UV/VIS spectrophotometer at 232 nm. Absorbance values of the samples were compared to those of standard solutions prepared in dissolution media to determine the amount of material dissolved.

[2] = Particle size analysis (light obscuration / laser diffraction); format: physicochemical
Description: The particle size of the taxane particles can be determined by a particle size analyzer instrument and the measurement is expressed as the mean diameter based on a number distribution (number). A suitable particle size analyzer instrument is one which employs the analytical technique of light obscuration, also referred to as photozone or single particle optical sensing (SPOS). A suitable light obscuration particle size analyzer instrument is the ACCUSIZER, such as the ACCUSIZER 780 SIS, available from Particle Sizing Systems, Port Richey, Fla. Another suitable particle size analyzer instrument is one which employs laser diffraction, such as the Shimadzu SALD-7101.
Particle size was analyzed by both light obscuration and laser diffraction methods. An Particle Sizing Systems AccuSizer 780 SIS system was used for the light obscuration method and Shimadzu SALD-7101 was used for the laser diffraction method.
The vials were vortexed for approximately 10 seconds and then sonicated in a sonic bath approximately 1 minute.
The vial was vortexed for approximately 10 seconds and then sonicated in a sonic bath for approximately 2 minutes. This suspension was used for laser diffraction analysis. Unused suspension was poured into a 125 mL particle-free plastic bottle, which was then filled to approximately 100 mL with filtered dispersant. The suspension was vortex for approximately 10 seconds and then sonicated in the sonic bath for approximately 2 minutes. This diluted suspension was used for light obscuration analysis.
A background test was first performed prior to analyzing particles on the AccuSizer 780 SIS. A new particle-free plastic bottle was filled with blank suspension solution by pumping from a reservoir, using a peristaltic pump, through a 0.22 μm Millipore filter and into the bottle. A background analysis was run to ensure the particle/mL count was below 100 particles/mL. […] Once the analysis was completed, the background data was removed and any measurement with less than four counts was removed.
To analyze particles on SALD-7101 using a batch cell, the analysis was started by choosing Manual Measurement. The refractive index was set as 1.5 to 1.7. The batch cell was filled with filtered dispersant just past the etched line. The blank measurement was ran. […] The measurements were executed, and the resulting graph with the highest level of confidence was selected; background was automatically accounted for.

[3] = tested on: UM-UC-3 bladder cancer cell line (ATCC-CRL-1749) tumors; experiment: Human bladder cancer (UM-UC-3) mouse xenograft study, tumor volume; format: in vivo, Hsd:Athymic Nude-Foxn1nu nude mice
Experimental: Tumor volume was determined with calipers. […] Animals were weighed 2×/week.
At day 18 after tumor implant, when average tumor size was between 50-325 mm^3, animals were sorted into five groups with equal average tumor sizes and were treated as shown in Table 8 below.
The second treatments (2nd cycle) occurred 7 days following first treatment (1st cycle) and third treatments (3rd cycle) occurred 14 days following the first treatment. The docetaxel solution IV was administered via the tail vein.
The test formulations were prepared as follows: • Vehicle (Control): Diluted 1 ml of the 1% Polysorbate 80/8% Ethanol in normal saline (0.9% Sodium Chloride for Injection) reconstitution solution with 1.5 mL of normal saline (0.9% Sodium Chloride for Injection, USP). […] Vigorously hand shook the vial with inversions for 1 minute. […] Vortexed to mix.
Tumor volumes were determined 2×/week for the duration of the study (61 days). The results of the study are shown in FIG. 4, FIG. 5, FIG. 6, FIG. 7, FIG. 8, FIG. 9, FIG. 10, FIG. 11, FIG. 12 & FIG. 13. […] These observations are also reflected in FIG. 5, FIG. 6, FIG. 7, FIG. 8, FIG. 9, FIG. 12 & FIG. 13.

[4] = tested on: UM-UC-3 bladder cancer cell line (ATCC-CRL-1749) tumors; experiment: Xenograft study: histology (H&E) and immunohistochemistry of tumor site tissue; format: in vivo, Hsd:Athymic Nude-Foxn1nu nude mice
[5] = IV docetaxel 3 cycles; of 7 tumors measured; day of death or euthanasia
[6] = Bulk density (not tapped); format: physicochemical
Experimental: As used herein, the “specific surface area” (SSA) is the total surface area of the taxane particle per unit of taxane mass as measured by the Brunauer-Emmett-Teller (“BET”) isotherm by the following method: a known mass between 200 and 300 mg of the analyte is added to a 30 mL sample tube. […] The automated test is then carried out using the BETWIN® software package and the surface area of each sample is subsequently calculated. As will be understood by those of skill in the art, the “taxane particles” can include both agglomerated taxane particles and non-agglomerated taxane particles; since the SSA is determined on a per gram basis it takes into account both the larger agglomerated and smaller non-agglomerated taxane particles in the composition. The agglomerated taxane particles are defined herein as individual taxane particles that are formed by the agglomeration of smaller particles which fuse together forming the larger individual taxane particles, all of which occurs during the processing of the taxane particles. The BET specific surface area test procedure is a compendial method included in both the United States Pharmaceopeia and the European Pharmaceopeia. […]
The mass of the drug was measured to a nearest 0.1 mg, the volume was determined to the nearest 0.1 mL and the density calculated.

[7] = BET specific surface area (SSA); format: physicochemical
Experimental: As used herein, the “specific surface area” (SSA) is the total surface area of the taxane particle per unit of taxane mass as measured by the Brunauer-Emmett-Teller (“BET”) isotherm by the following method: a known mass between 200 and 300 mg of the analyte is added to a 30 mL sample tube. […] The automated test is then carried out using the BETWIN® software package and the surface area of each sample is subsequently calculated. As will be understood by those of skill in the art, the “taxane particles” can include both agglomerated taxane particles and non-agglomerated taxane particles; since the SSA is determined on a per gram basis it takes into account both the larger agglomerated and smaller non-agglomerated taxane particles in the composition. The agglomerated taxane particles are defined herein as individual taxane particles that are formed by the agglomeration of smaller particles which fuse together forming the larger individual taxane particles, all of which occurs during the processing of the taxane particles. […]
A known mass between 200 and 300 mg of the analyte was added to a 30 mL sample tube. […] The automated test was then carried out using the BETWIN® software package and the surface area of each sample was subsequently calculated.

[8] = Paclitaxel dissolution study, methanol/water 50/50, USP Apparatus II; format: physicochemical; details: methanol/water 50/50 (v/v), 37° C., pH 7, paddle 75 rpm
Experimental: Beads were transferred to a stainless steel mesh container and placed in the dissolution bath containing methanol/water 50/50 (v/v) media at 37° C., pH 7, and a USP Apparatus II (Paddle), operating at 75 rpm. […] Absorbance values of the samples were compared to those of standard solutions prepared in dissolution media to determine the amount of material dissolved. […] Absorbance values of the samples were compared to those of standard solutions prepared in dissolution media to determine the amount of material dissolved.
Beads were transferred to a stainless steel mesh container and placed in the dissolution bath containing methanol/water 50/50 (v/v) media at 37° C., pH 7, and a USP Apparatus II (Paddle), operating at 75 rpm. At 10, 20, 30, 60, and 90 minutes, a 5 mL aliquot was removed, filtered through a 0.22 μm filter and analyzed on a U(V/V)is spectrophotometer at 227 nm. Absorbance values of the samples were compared to those of standard solutions prepared in dissolution media to determine the amount of material dissolved.

[9] = IV Docetaxel 3 cycles, 2 animals

For `CC(=O)O[C@@]12CO[C@@H]1C[C@H](O)[C@@]1(C)C(=O)[C@H](O)C3=C(C)[C@@H](OC(=O)[C@H](O)[C@@H](NC(=O)OC(C)(C)C)c4ccccc4)C[C@@](O)([C@@H](OC(=O)c4ccccc4)[C@H]21)C3(C)C` [Docetaxel Raw Material, docetaxel], the “Docetaxel Dissolution time course” value ([1]; 0 minutes) was 0.0%, the “Docetaxel Dissolution time course” value ([1]; 5 minutes) was 3.2% and the “Docetaxel Dissolution time course” value ([1]; 15 minutes) was 6.9%. For the same molecule, the “Docetaxel Dissolution time course” value ([1]; 30 minutes) was 11.2%, the “Docetaxel Dissolution time course” value ([1]; 60 minutes) was 16.4% and the “Docetaxel Dissolution time course” value ([1]; 120 minutes) was 22.4%. The “Docetaxel Dissolution time course” value ([1]; 225 minutes) was 26.8%, the “Dissolution (30 min)” value ([1]; docetaxel, methanol/water 15/85 (v/v), 37° C., pH 7, paddle 75 rpm, 30 min) was 11% and the “Number Mean (um)” value [2] was 1.58 um. The “Volume Mean (um)” value [2] was 5.05 um.

For `CC(=O)O[C@@]12CO[C@@H]1C[C@H](O)[C@@]1(C)C(=O)[C@H](O)C3=C(C)[C@@H](OC(=O)[C@H](O)[C@@H](NC(=O)OC(C)(C)C)c4ccccc4)C[C@@](O)([C@@H](OC(=O)c4ccccc4)[C@H]21)C3(C)C` [Docetaxel, docetaxel], the tumor volume ([3]; Docetaxel Solution 30 mg/kg IV, 3 weekly cycles, to Day 61) was “Tumor volumes decreased initially; also recorded: subsequently increased; also recorded: somewhat effective at treating small tumors, but not very effective in treating large tumors”, the “Necropsy volume (mm^3), per animal” value ([3]; IV Docetaxel 3 cycles (B1, B3)) was 2872 mm^3 and 1652 mm^3 and the “histology general observations (H&E)” value ([4]; Docetaxel Solution IV 3 cycles) was “many viable appearing tumor masses with some macrophage and occasional lymphocytic response along with some tumor necrosis”. The “Maximum tumor size on slide / size of viable nodules (mm), per animal” value ([4]; IV Docetaxel 3 cycles (cases B1, B3)) was 11 mm and 15 mm, the “Macrophage infiltrate density (CD68): animals graded Mild” value [4, 9] was 2 and the “Maximum size of viable invasive carcinoma on the slide: animals with >10 mm” value [4, 9] was 2*. For the same molecule, the “Percentage of tumor showing necrosis: animals with 11-50%” value [4, 9] was 1, the “Percentage of tumor showing necrosis: animals with 50-90%” value [4, 9] was 1 and the “tumors with docetaxel levels above the limit of quantitation (1 ng/g)” value [5] was 1.

For `CC(=O)O[C@H]1C(=O)[C@@]2(C)[C@H]([C@H](OC(=O)c3ccccc3)[C@]3(O)C[C@H](OC(=O)[C@H](O)[C@@H](NC(=O)c4ccccc4)c4ccccc4)C(C)=C1C3(C)C)[C@]1(OC(C)=O)CO[C@@H]1C[C@@H]2O` [Paclitaxel Raw Material, paclitaxel], the “Bulk Density” value [6] was 0.26 g/mL, the “Number Mean (um)” value [2] was 1.16 um and the “Volume Mean (um)” value [2] was 1.29 um. The “Surface Area (m^2/g)” value ([7]; BET) was 10.4 m^2/g, the BET surface area ([7]; Example 1 results text) was 7.25 m^2/g and the “Dissolution (30 min)” value [8] was 18%.
